Tested on: IL-1β release from THP-1 cells
Experiment: IL-1β Release Assay (Alternate Method), THP-1 cells
Format: cell-based, human
Conditions: Homo sapiens; at 0.3 μM; THP-1 cells; read-out: IL-1β % inhibition
How it was run: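 THP-1 cells differentiated 16 h with 100 ng/mL LPS plus 100 ng/mL IFN-γ, reprimed 2 h with 100 ng/mL LPS, pretreated 30 min with compound, then challenged 45 min with 250 uM BzATP (final). Supernatant IL-1β quantified by ELISA; percent inhibition from background-adjusted levels versus untreated cells.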

SMILES	inhibition at 0.3 µM
O=C(c1ccccc1)N1CCc2c(ncnc2NC(=O)C23CC4CC(CC(C4)C2)C3)C1 [Compound 394]	25 to 50%

Same assay, conditions: at 0.3 μM; THP-1 cells

SMILES	IL-1β % inhibition
CC(C)(C(=O)Nc1ncnc2c1CCN(Cc1ccccc1F)C2)C12CC3CC(CC(C3)C1)C2 [Compound 369]	+ (compound exhibited 0-25% inhibition at 0.3 μM)
CC12CC3CC(C)(C1)CC(CC(=O)Nc1ncnc4c1CCN(Cc1ccccc1Cl)C4)(C3)C2 [Compound 370]	++ (compound exhibited 25-50% inhibition at 0.3 μM)
CC12CC3CC(C)(C1)CC(CC(=O)Nc1ncnc4c1CCN(Cc1ccccc1F)C4)(C3)C2 [Compound 371]	+++ (compound exhibited 50-75% inhibition at 0.3 μM)
Cc1ccccc1CN1CCc2c(ncnc2NC(=O)CC23CC4CC(C)(CC(C)(C4)C2)C3)C1 [Compound 372]	+++ (compound exhibited 50-75% inhibition at 0.3 μM)
CC12CC3CC(C)(C1)CC(CC(=O)Nc1ncnc4c1CCN(Cc1ccc5c(c1)OCCO5)C4)(C3)C2 [Compound 373]	++++ (compound exhibited 75% or greater inhibition at 0.3 μM)
CC12CC3CC(C)(C1)CC(CC(=O)Nc1ncnc4c1CCN(Cc1ccc(F)cc1F)C4)(C3)C2 [Compound 374]	++ (compound exhibited 25-50% inhibition at 0.3 μM)
CC12CC3CC(C)(C1)CC(CC(=O)Nc1ncnc4c1CCN(Cc1ccc(F)cc1)C4)(C3)C2 [Compound 376]	++ (compound exhibited 25-50% inhibition at 0.3 μM)
CC12CC3CC(C)(C1)CC(CC(=O)Nc1ncnc4c1CCN(S(=O)(=O)Cc1ccccc1)C4)(C3)C2 [Compound 377]	++++ (compound exhibited 75% or greater inhibition at 0.3 μM)
CC12CC3CC(C)(C1)CC(CC(=O)Nc1ncnc4c1CCN(S(=O)(=O)Cc1ccc(Cl)c(Cl)c1)C4)(C3)C2 [Compound 378]	+++ (compound exhibited 50-75% inhibition at 0.3 μM)
CC12CC3CC(C)(C1)CC(CC(=O)Nc1ncnc4c1CCN(S(=O)(=O)Cc1ccc(Cl)cc1)C4)(C3)C2 [Compound 379]	+++ (compound exhibited 50-75% inhibition at 0.3 μM)
CC12CC3CC(C)(C1)CC(CC(=O)Nc1ncnc4c1CCN(S(=O)(=O)c1cccc(Cl)c1)C4)(C3)C2 [Compound 380]	+ (compound exhibited 0-25% inhibition at 0.3 μM)
CC12CC3CC(C)(C1)CC(CC(=O)Nc1ncnc4c1CCN(S(=O)(=O)c1cccc(F)c1F)C4)(C3)C2 [Compound 381]	+ (compound exhibited 0-25% inhibition at 0.3 μM)
Cc1cccc(C(=O)N2CCc3c(ncnc3NC(=O)CC34CC5CC(C)(CC(C)(C5)C3)C4)C2)c1 [Compound 382]	++ (compound exhibited 25-50% inhibition at 0.3 μM)
CC12CC3CC(C)(C1)CC(CC(=O)Nc1ncnc4c1CCN(C(=O)c1cccc(C(F)(F)F)c1)C4)(C3)C2 [Compound 383]	+ (compound exhibited 0-25% inhibition at 0.3 μM)
CC12CC3CC(C)(C1)CC(CC(=O)Nc1ncnc4c1CCN(C(=O)CC1CCCC1)C4)(C3)C2 [Compound 384]	++ (compound exhibited 25-50% inhibition at 0.3 μM)
CC12CC3CC(C)(C1)CC(CC(=O)Nc1ncnc4c1CCN(C(=O)c1ccc(Cl)c(Cl)c1)C4)(C3)C2 [Compound 385]	+ (compound exhibited 0-25% inhibition at 0.3 μM)
CC12CC3CC(C)(C1)CC(CC(=O)Nc1ncnc4c1CCN(C(=O)C1CCCCC1)C4)(C3)C2 [Compound 386]	++ (compound exhibited 25-50% inhibition at 0.3 μM)
CC12CC3CC(C)(C1)CC(CC(=O)Nc1ncnc4c1CCN(C(=O)c1c(F)cccc1F)C4)(C3)C2 [Compound 387]	+ (compound exhibited 0-25% inhibition at 0.3 μM)
CC(C)(C)CC(=O)N1CCc2c(ncnc2NC(=O)CC23CC4CC(C)(CC(C)(C4)C2)C3)C1 [Compound 388]	+ (compound exhibited 0-25% inhibition at 0.3 μM)
CC12CC3CC(C)(C1)CC(CC(=O)Nc1ncnc4c1CCN(C(=O)c1c(F)cccc1Cl)C4)(C3)C2 [Compound 389]	++ (compound exhibited 25-50% inhibition at 0.3 μM)
CC12CC3CC(C)(C1)CC(CC(=O)Nc1ncnc4c1CCN(C(=O)c1cc(F)ccc1F)C4)(C3)C2 [Compound 390]	+ (compound exhibited 0-25% inhibition at 0.3 μM)
CC12CC3CC(C)(C1)CC(CC(=O)Nc1ncnc4c1CCN(C(=O)c1cccc(Cl)c1Cl)C4)(C3)C2 [Compound 391]	+ (compound exhibited 0-25% inhibition at 0.3 μM)
O=C(Cc1ccccc1)N1CCc2c(ncnc2NC(=O)C23CC4CC(CC(C4)C2)C3)C1 [Compound 398]	+++ (compound exhibited 50-75% inhibition at 0.3 μM)
O=C(c1ccc(Cl)cc1)N1CCc2c(ncnc2NC(=O)C23CC4CC(CC(C4)C2)C3)C1 [Compound 399]	+ (compound exhibited 0-25% inhibition at 0.3 μM)
O=C(c1cccc(F)c1)N1CCc2c(ncnc2NC(=O)C23CC4CC(CC(C4)C2)C3)C1 [Compound 400]	+ (compound exhibited 0-25% inhibition at 0.3 μM)
O=C(c1ccc(OC(F)(F)F)cc1)N1CCc2c(ncnc2NC(=O)C23CC4CC(CC(C4)C2)C3)C1 [Compound 401]	+ (compound exhibited 0-25% inhibition at 0.3 μM)
CCc1ccc(C(=O)N2CCc3c(ncnc3NC(=O)C34CC5CC(CC(C5)C3)C4)C2)cc1 [Compound 402]	+ (compound exhibited 0-25% inhibition at 0.3 μM)
Cc1cccc(C(=O)N2CCc3c(ncnc3NC(=O)C34CC5CC(CC(C5)C3)C4)C2)c1 [Compound 403]	++ (compound exhibited 25-50% inhibition at 0.3 μM)
O=C(c1ccc(F)c(F)c1)N1CCc2c(ncnc2NC(=O)C23CC4CC(CC(C4)C2)C3)C1 [Compound 405]	++ (compound exhibited 25-50% inhibition at 0.3 μM)

Same assay, conditions: at 0.3 μM; THP-1 cells, BzATP-stimulated

SMILES	IL-1β % inhibition
O=C(c1cccc(C(F)(F)F)c1)N1CCc2c(ncnc2NC(=O)C23CC4CC(CC(C4)C2)C3)C1 [Compound 406]	++ (compound exhibited 25-50% inhibition at 0.3 μM)
COc1ccc(C(=O)N2CCc3c(ncnc3NC(=O)C34CC5CC(CC(C5)C3)C4)C2)cc1 [Compound 407]	+ (compound exhibited 0-25% inhibition at 0.3 μM)
O=C(C(c1ccccc1)c1ccccc1)N1CCc2c(ncnc2NC(=O)C23CC4CC(CC(C4)C2)C3)C1 [Compound 409]	+ (compound exhibited 0-25% inhibition at 0.3 μM)
O=C(Cc1ccc(F)cc1)N1CCc2c(ncnc2NC(=O)C23CC4CC(CC(C4)C2)C3)C1 [Compound 413]	++ (compound exhibited 25-50% inhibition at 0.3 μM)
N#Cc1cccc(C(=O)N2CCc3c(ncnc3NC(=O)C34CC5CC(CC(C5)C3)C4)C2)c1 [Compound 414]	++ (compound exhibited 25-50% inhibition at 0.3 μM)
O=C(c1ccc(C(F)(F)F)cc1)N1CCc2c(ncnc2NC(=O)C23CC4CC(CC(C4)C2)C3)C1 [Compound 415]	+ (compound exhibited 0-25% inhibition at 0.3 μM)
O=C(c1ccc(Cl)c(Cl)c1)N1CCc2c(ncnc2NC(=O)C23CC4CC(CC(C4)C2)C3)C1 [Compound 417]	+ (compound exhibited 0-25% inhibition at 0.3 μM)
COc1cc(OC)cc(C(=O)N2CCc3c(ncnc3NC(=O)C34CC5CC(CC(C5)C3)C4)C2)c1 [Compound 418]	++ (compound exhibited 25-50% inhibition at 0.3 μM)
O=C(c1c(F)cccc1F)N1CCc2c(ncnc2NC(=O)C23CC4CC(CC(C4)C2)C3)C1 [Compound 419]	+ (compound exhibited 0-25% inhibition at 0.3 μM)
O=C(COc1ccccc1)N1CCc2c(ncnc2NC(=O)C23CC4CC(CC(C4)C2)C3)C1 [Compound 421]	+ (compound exhibited 0-25% inhibition at 0.3 μM)
COc1cccc(C(=O)N2CCc3c(ncnc3NC(=O)C34CC5CC(CC(C5)C3)C4)C2)c1 [Compound 422]	++ (compound exhibited 25-50% inhibition at 0.3 μM)
O=C(c1ccc(F)cc1)N1CCc2c(ncnc2NC(=O)C23CC4CC(CC(C4)C2)C3)C1 [Compound 423]	++ (compound exhibited 25-50% inhibition at 0.3 μM)
CC(C)(C)C(=O)N1CCc2c(ncnc2NC(=O)C23CC4CC(CC(C4)C2)C3)C1 [Compound 424]	+ (compound exhibited 0-25% inhibition at 0.3 μM)
O=C(c1cccc(Cl)c1)N1CCc2c(ncnc2NC(=O)C23CC4CC(CC(C4)C2)C3)C1 [Compound 425]	+ (compound exhibited 0-25% inhibition at 0.3 μM)
O=C(COCc1ccccc1)N1CCc2c(ncnc2NC(=O)C23CC4CC(CC(C4)C2)C3)C1 [Compound 428]	+ (compound exhibited 0-25% inhibition at 0.3 μM)
O=C(c1ccc(Cl)cc1Cl)N1CCc2c(ncnc2NC(=O)C23CC4CC(CC(C4)C2)C3)C1 [Compound 430]	++ (compound exhibited 25-50% inhibition at 0.3 μM)
COc1cccc(CC(=O)N2CCc3c(ncnc3NC(=O)C34CC5CC(CC(C5)C3)C4)C2)c1 [Compound 433]	++ (compound exhibited 25-50% inhibition at 0.3 μM)
O=C(COc1ccc(Cl)cc1)N1CCc2c(ncnc2NC(=O)C23CC4CC(CC(C4)C2)C3)C1 [Compound 436]	++ (compound exhibited 25-50% inhibition at 0.3 μM)
O=C(Cc1ccc(Cl)cc1)N1CCc2c(ncnc2NC(=O)C23CC4CC(CC(C4)C2)C3)C1 [Compound 437]	+ (compound exhibited 0-25% inhibition at 0.3 μM)
O=C(c1ccc(C(F)(F)F)cc1F)N1CCc2c(ncnc2NC(=O)C23CC4CC(CC(C4)C2)C3)C1 [Compound 438]	++ (compound exhibited 25-50% inhibition at 0.3 μM)
O=C(c1cc(F)cc(C(F)(F)F)c1)N1CCc2c(ncnc2NC(=O)C23CC4CC(CC(C4)C2)C3)C1 [Compound 439]	++ (compound exhibited 25-50% inhibition at 0.3 μM)
O=C(c1ccccc1C(F)(F)F)N1CCc2c(ncnc2NC(=O)C23CC4CC(CC(C4)C2)C3)C1 [Compound 442]	++ (compound exhibited 25-50% inhibition at 0.3 μM)

Reference: patent US7297700B2, “Bicycloheteroaryl compounds as P2X7 modulators and uses thereof” (Renovis, Inc., priority 2005, dated 2007)
